Data reported in patent US6444703B1, “Cyclohexane carbocyclic ester derivative and cyclodextrin complex and composition for treatment of helicobacter pylori infections” (Teikoku Chemical Industries Co., Ltd., priority 1995, dated 2002).
Values joined by “and” are separate entries in the source; they are usually repeats but may differ in a detail not shown here. Identical values can stand only once. Like-named read-outs stand apart in the source and are kept apart here.

Tests used:
[1] = Solubility measurement (excess added to solvent, shaken one hour, supernatant assayed); assay type: physicochemical; conditions: thermodynamic from solid, 25° C.
Description: Incidentally, the method for measuring the solubility in each example is as follows. Thus, an excessive amount of the present compound was added to a certain amount of solvent, the mixture was shaken for one hour, the supernatant liquid was removed and the amount of the present compound contained therein was measured wherefrom the solubility was calculated.

[2] = test system: Helicobacter pylori ATCC 43504; test: Eradication of Helicobacter pylori in stomach of infected Mongolian gerbils (viable cell counting); assay type: in vivo; conditions: oral 10 ml/kg three times on the 11th day, stomach viable cells 20 hours after final administration, individual animals 1-3, versus control 3.7 × 10^4 CFU/stomach, hydrochloride
Description: Helicobacter pylori ATCC 43504 (100 μl) was inoculated into Brain heart infusion broth containing 10% calf serum and incubated at 37° C. for 24 hours in a microaerophilic atmosphere. The culture broth (0.5 ml containing about 3×10^8 CFU/ml) was administered orally to Mongolian gerbils (MON/Jms/Gba Slc; male of six weeks age) after fasting for 24 hours, then neither feed nor water was given for four hours and, after that, the animals were given with feed and water for ten days. Three infected animals as prepared in (1) were used per group. They were fasted from 20 hours before the 11th day (although water was made freely taken by them) and, during the fasted stage, 10 ml/kg each of the test drugs for administration prepared in Examples and Comparative Examples were orally given to them at 9:00, 13:00 and 17:00 o'clock on the 11th day. Feeding was started as from 21:00 o'clock and, after 20 hours from the final administration, stomach of the animals was removed and Helicobacter pylori living therein was subjected to a viable cell counting. The stomachs were cut open and the contents were removed (no washing conducted) and homogenized in 20 ml of 0.1M phosphate buffer (pH 7.2) to give a sample for viable cell counting. […] The growing colonies were counted after 6 days. […] Incidentally, the eradication rate was calculated according to the following calculating expression. […]

`Cc1ccc(COC(=O)c2ccc(-c3ccc(OC(=O)[C@H]4CC[C@H](CNC(=N)N)CC4)cc3)cc2)cc1.Cl` [Comp.Ex.1, 4-[4-(4-Methylbenzyloxycarbonyl)phenyl]phenyl trans-4-guanidinomethylcyclohexanecarboxylate hydrochloride] gave a solubility at 1 h ([1]; 0.05M phosphate buffer, aqueous buffer, pH 6.5, read-out: Solubility in 0.05M phosphate buffer (pH 6.5)) of under 0.1 µg/mL, a solubility at 1 h ([1]; 0.1M acetate buffer, aqueous buffer, pH 4.0, read-out: Solubility in 0.1M acetate buffer (pH 4.0)) of under 0.1 µg/mL and a solubility at 1 h ([1]; first fluid (The Japanese Pharmacopoeia), simulated gastric fluid, pH 1.2, read-out: Solubility in the first fluid (The Japanese Pharmacopoeia) (pH 1.2)) of under 0.1 µg/mL. For the same compound, the solubility at 1 h ([1]; water, read-out: Solubility in water) was 24 µg/mL and the “Eradication Rate (%)” value [2] was 95.7% and 62.2% and 0%.
